What was measured:
Assay type in all cases: functional
[1] = test system: U-251; assay: Anticancer activity against human U251 cells assessed cell growth at 10 uM after 48 hrs by sulforhodamine B assay relative to control
[2] = test system: MDA-MB-468; assay: Anticancer activity against human MDA-MB-468 cells assessed cell growth at 10 uM after 48 hrs by sulforhodamine B assay relative to control
[3] = test system: Malme-3M; assay: Anticancer activity against human MALME-3M cells assessed cell growth at 10 uM after 48 hrs by sulforhodamine B assay relative to control
[4] = test system: HT-29; assay: Anticancer activity against human HT-29 cells assessed cell growth at 10 uM after 48 hrs by sulforhodamine B assay relative to control
[5] = test system: NCI/ADR-RES; assay: Anticancer activity against human NCI/ADR-RES cells assessed cell growth at 10 uM after 48 hrs by sulforhodamine B assay relative to control
[6] = test system: NCI-H226; assay: Anticancer activity against human NCI-H226 cells assessed cell growth at 10 uM after 48 hrs by sulforhodamine B assay relative to control
[7] = test system: SNB-75; assay: Anticancer activity against human SNB75 cells assessed cell growth at 10 uM after 48 hrs by sulforhodamine B assay relative to control
[8] = test system: SN12C; assay: Anticancer activity against human SN12C cells assessed cell growth at 10 uM after 48 hrs by sulforhodamine B assay relative to control
[9] = test system: RXF 393; assay: Anticancer activity against human RXF393 cells assessed cell growth at 10 uM after 48 hrs by sulforhodamine B assay relative to control
[10] = test system: UACC-62; assay: Anticancer activity against human UACC62 cells assessed cell growth at 10 uM after 48 hrs by sulforhodamine B assay relative to control
[11] = test system: UACC-257; assay: Anticancer activity against human UACC257 cells assessed cell growth at 10 uM after 48 hrs by sulforhodamine B assay relative to control
[12] = test system: NCI-H522; assay: Anticancer activity against human NCI-H522 cells assessed cell growth at 10 uM after 48 hrs by sulforhodamine B assay relative to control
[13] = test system: SF-539; assay: Anticancer activity against human SF539 cells assessed cell growth at 10 uM after 48 hrs by sulforhodamine B assay relative to control
[14] = test system: K562; assay: Anticancer activity against human K562 cells assessed cell growth at 10 uM after 48 hrs by sulforhodamine B assay relative to control
[15] = test system: SR; assay: Anticancer activity against human SR cells assessed cell growth at 10 uM after 48 hrs by sulforhodamine B assay relative to control
[16] = test system: CCRF-CEM; assay: Anticancer activity against human CCRF-CEM cells assessed cell growth at 10 uM after 48 hrs by sulforhodamine B assay relative to control
[17] = test system: NCI-H460; assay: Anticancer activity against human NCI-H460 cells assessed cell growth at 10 uM after 48 hrs by sulforhodamine B assay relative to control
[18] = test system: OVCAR-3; assay: Anticancer activity against human OVCAR-3 cells assessed cell growth at 10 uM after 48 hrs by sulforhodamine B assay relative to control
[19] = test system: COLO 205; assay: Anticancer activity against human COLO205 cells assessed cell growth at 10 uM after 48 hrs by sulforhodamine B assay relative to control
[20] = test system: SK-MEL-5; assay: Anticancer activity against human SK-MEL-5 cells assessed cell growth at 10 uM after 48 hrs by sulforhodamine B assay relative to control
[21] = test system: SK-MEL-28; assay: Anticancer activity against human SK-MEL-28 cells assessed cell growth at 10 uM after 48 hrs by sulforhodamine B assay relative to control
[22] = test system: NCI-H322M; assay: Anticancer activity against human NCI-H322M cells assessed cell growth at 10 uM after 48 hrs by sulforhodamine B assay relative to control
[23] = test system: NCI-H23; assay: Anticancer activity against human NCI-H23 cells assessed cell growth at 10 uM after 48 hrs by sulforhodamine B assay relative to control
[24] = test system: SK-MEL-2; assay: Anticancer activity against human SK-MEL-2 cells assessed cell growth at 10 uM after 48 hrs by sulforhodamine B assay relative to control
[25] = test system: MDA-MB-231; assay: Anticancer activity against human MDA-MB-231 cells assessed cell growth at 10 uM after 48 hrs by sulforhodamine B assay relative to control
[26] = test system: UO-31; assay: Anticancer activity against human UO31 cells assessed cell growth at 10 uM after 48 hrs by sulforhodamine B assay relative to control
[27] = test system: IGROV-1; assay: Anticancer activity against human IGROV1 cells assessed cell growth at 10 uM after 48 hrs by sulforhodamine B assay relative to control
[28] = test system: PC-3; assay: Anticancer activity against human PC3 cells assessed cell growth at 10 uM after 48 hrs by sulforhodamine B assay relative to control
[29] = test system: CAKI-1; assay: Anticancer activity against human Caki1 cells assessed cell growth at 10 uM after 48 hrs by sulforhodamine B assay relative to control
[30] = test system: OVCAR-4; assay: Anticancer activity against human OVCAR4 cells assessed cell growth at 10 uM after 48 hrs by sulforhodamine B assay relative to control
[31] = test system: BT-549; assay: Anticancer activity against human BT549 cells assessed cell growth at 10 uM after 48 hrs by sulforhodamine B assay relative to control
[32] = test system: HOP-92; assay: Anticancer activity against human HOP92 cells assessed cell growth at 10 uM after 48 hrs by sulforhodamine B assay relative to control
[33] = test system: DU-145; assay: Anticancer activity against human DU145 cells assessed cell growth at 10 uM after 48 hrs by sulforhodamine B assay relative to control
[34] = test system: MOLT-4; assay: Anticancer activity against human MOLT4 cells assessed cell growth at 10 uM after 48 hrs by sulforhodamine B assay relative to control
[35] = test system: M14; assay: Anticancer activity against human M14 cells assessed cell growth at 10 uM after 48 hrs by sulforhodamine B assay relative to control
[36] = test system: HL-60(TB); assay: Anticancer activity against human HL-60(TB) cells assessed cell growth at 10 uM after 48 hrs by sulforhodamine B assay relative to control
[37] = test system: LOX IMVI; assay: Anticancer activity against human LOXIMVI cells assessed cell growth at 10 uM after 48 hrs by sulforhodamine B assay relative to control
[38] = test system: HOP-62; assay: Anticancer activity against human HOP62 cells assessed cell growth at 10 uM after 48 hrs by sulforhodamine B assay relative to control
[39] = test system: SNB-19; assay: Anticancer activity against human SNB19 cells assessed cell growth at 10 uM after 48 hrs by sulforhodamine B assay relative to control
[40] = test system: ACHN; assay: Anticancer activity against human ACHN cells assessed cell growth at 10 uM after 48 hrs by sulforhodamine B assay relative to control
[41] = Anticancer activity against human RPMI8266 cells assessed cell growth at 10 uM after 48 hrs by sulforhodamine B assay relative to control
[42] = test system: A549; assay: Anticancer activity against human A549 cells assessed cell growth at 10 uM after 48 hrs by sulforhodamine B assay relative to control
[43] = test system: HCC 2998; assay: Anticancer activity against human HCC2998 cells assessed cell growth at 10 uM after 48 hrs by sulforhodamine B assay relative to control

Structure (SMILES): Cn1cc[n+](Cc2ccccc2)c1.F[P-](F)(F)(F)(F)F
- Activity [1]: 101.41%
- Activity [2]: 101.43%
- Activity [3]: 118.68%
- Activity [4]: 96.77%
- Activity [5]: 90.03%
- Activity [6]: 99.73%
- Activity [7]: 83.18%
- Activity [8]: 107.17%
- Activity [9]: 102.92%
- Activity [10]: 101.92%
- Activity [11]: 106.42%
- Activity [12]: 99.72%
- Activity [13]: 106.41%
- Activity [14]: 70.16%
- Activity [15]: 103.39%
- Activity [16]: 113.04%
- Activity [17]: 106.8%
- Activity [18]: 110.15%
- Activity [19]: 123.33%
- Activity [20]: 104.4%
- Activity [21]: 125.12%
- Activity [22]: 116.31%
- Activity [23]: 70.66%
- Activity [24]: 108.02%
- Activity [25]: 113.82%
- Activity [26]: 91.78%
- Activity [27]: 95.43%
- Activity [28]: 98.08%
- Activity [29]: 83.75%
- Activity [30]: 107.15%
- Activity [31]: 112.82%
- Activity [32]: 109.04%
- Activity [33]: 118.22%
- Activity [34]: 81.59%
- Activity [35]: 114.25%
- Activity [36]: 44.77%
- Activity [37]: 100.88%
- Activity [38]: 27.45%
- Activity [39]: 100.88%
- Activity [40]: 96.35%
- Activity [41]: 131.72%
- Activity [42]: 105.33%

Structure (SMILES): CCCCCC[n+]1ccn(C)c1.O=S(=O)([N-]S(=O)(=O)C(F)(F)F)C(F)(F)F
- Activity [1]: 96.82%
- Activity [2]: 80.22%
- Activity [3]: 102.07%
- Activity [4]: 88.19%
- Activity [5]: 99.76%
- Activity [6]: 87.92%
- Activity [7]: 94.84%
- Activity [8]: 90.25%
- Activity [9]: 103.51%
- Activity [10]: 92.58%
- Activity [11]: 87.47%
- Activity [12]: 81.74%
- Activity [13]: 75.4%
- Activity [43]: 90.7%
- Activity [14]: 101.77%
- Activity [15]: 126.57%
- Activity [16]: 121.99%
- Activity [17]: 90.77%
- Activity [18]: 99.74%
- Activity [19]: 100.66%
- Activity [20]: 78.78%
- Activity [21]: 135.26%
- Activity [22]: 113.78%
- Activity [23]: 89.09%
- Activity [24]: 102.62%
- Activity [25]: 86.26%
- Activity [26]: 84.29%
- Activity [27]: 85.47%
- Activity [28]: 105.34%
- Activity [29]: 66.14%
- Activity [30]: 82.57%
- Activity [31]: 119.52%
- Activity [32]: 114.14%
- Activity [33]: 117.36%
- Activity [34]: 100.94%
- Activity [35]: 100.39%
- Activity [36]: 112.14%
- Activity [37]: 92.45%
- Activity [38]: 89.75%
- Activity [39]: 95.37%
- Activity [40]: 88.98%
- Activity [41]: 125.38%
- Activity [42]: 78.86%

Structure (SMILES): CCCCCC[n+]1ccn(C)c1.FC(F)(F)C(F)(F)[P-](F)(F)(F)(C(F)(F)C(F)(F)F)C(F)(F)C(F)(F)F
- Activity [1]: 78.65%
- Activity [2]: 39.66%
- Activity [3]: 102.23%
- Activity [4]: 66.89%
- Activity [5]: 54.24%
- Activity [6]: 57.04%
- Activity [7]: 88.07%
- Activity [8]: 87.26%
- Activity [9]: 92.19%
- Activity [10]: 68.28%
- Activity [11]: 34.16%
- Activity [12]: 58.3%
- Activity [13]: 75.55%
- Activity [43]: 76.85%
- Activity [14]: 68.14%
- Activity [15]: 77.17%
- Activity [16]: 65.92%
- Activity [17]: 51.46%
- Activity [18]: 94.84%
- Activity [19]: 97.72%
- Activity [20]: 51.37%
- Activity [21]: 100.39%
- Activity [22]: 77.95%
- Activity [23]: 45.51%
- Activity [24]: 47.53%
- Activity [25]: 73.1%
- Activity [26]: 71.06%
- Activity [27]: 78.12%
- Activity [28]: 86.43%
- Activity [29]: 53.43%
- Activity [30]: 59.66%
- Activity [31]: 54.78%
- Activity [32]: 85.4%
- Activity [33]: 107.66%
- Activity [34]: 81.53%
- Activity [35]: 88.81%
- Activity [36]: 96.2%
- Activity [37]: 59.38%
- Activity [38]: 88.12%
- Activity [39]: 82.22%
- Activity [40]: 54.23%
- Activity [41]: 53.67%
- Activity [42]: 56.87%

Structure (SMILES): CCCCCCCCCCCC[n+]1ccn(C)c1.[Cl-]
- Activity [1]: 21.74%
- Activity [2]: -42.1%
- Activity [3]: 24.55%
- Activity [4]: 12.35%
- Activity [5]: 82.17%
- Activity [6]: 30.42%
- Activity [7]: -10.6%
- Activity [8]: 19.36%
- Activity [9]: -20.81%
- Activity [10]: 31.07%
- Activity [11]: -12.38%
- Activity [12]: -19.92%
- Activity [13]: 30.45%
- Activity [43]: 31.07%
- Activity [14]: 64.21%
- Activity [15]: 103.6%
- Activity [16]: 110.51%
- Activity [17]: 23.64%
- Activity [18]: 45.92%
- Activity [19]: 8.8%
- Activity [20]: -33.13%
- Activity [21]: 34.86%
- Activity [22]: 57.06%
- Activity [23]: 28.79%
- Activity [24]: 13.06%
- Activity [25]: 41.54%
- Activity [26]: 65.71%
- Activity [28]: 75.39%
- Activity [29]: 28.77%
- Activity [30]: 22.69%
- Activity [32]: 51.88%
- Activity [33]: 6.6%
- Activity [34]: 78.62%
- Activity [35]: 8.94%
- Activity [36]: 51.9%
- Activity [37]: 23.94%
- Activity [38]: 38.17%
- Activity [39]: 45.54%
- Activity [40]: 45.02%
- Activity [41]: 116.34%
- Activity [42]: 32.62%
